According to article PMC10215302 (Antibiotics, 2023):
Values after ≈ are worked out from the molar mass of the structure shown. Read-outs that look alike come from different tables or passages of the source.

Assays:
S. aureus SA0085 [1] = system: S. aureus SA0085
S. aureus SA0422 [2] = system: S. aureus SA0422
S. aureus RN4220 [3] = system: S. aureus RN4220
S. aureus ATCC 29213 [4] = system: S. aureus ATCC 29213
S. aureus SA0077 [5] = system: S. aureus SA0077
S. aureus SA0736 [6] = system: S. aureus SA0736
S. aureus SA0736 [7] = assay: microbe, parasite or virus in culture; details: Staphylococcus aureus
S. aureus RN4220 [8] = assay: microbe, parasite or virus in culture; details: Staphylococcus aureus, RN4220, read-out: MIC values
S. aureus SA0085 [9] = assay: microbe, parasite or virus in culture; details: Staphylococcus aureus
S. aureus ATCC 29213 [10] = assay: microbe, parasite or virus in culture; details: Staphylococcus aureus
S. aureus SA0422 [11] = assay: microbe, parasite or virus in culture; details: Staphylococcus aureus
S. aureus SA0077 [12] = assay: microbe, parasite or virus in culture; details: Staphylococcus aureus
[13] = Table S1: RN4220 ∆ (strain with deletion in SACOL1927)
[14] = SA0736, read-out: MIC values, Table S1: SA0736 DAP-Y (40 passages on daptomycin, yellow colonies)
[15] = SA0736, read-out: MIC values, Table S1: SA0736 VAN (derivative after 40 passages on vancomycin)
[16] = SA0085, read-out: MIC values, Table S1: SA0085 Abf (passages on antibiotic-free media)
[17] = SA0085, read-out: MIC values, Table S1: SA0085 VAN (derivative after 40 passages on vancomycin)
[18] = ATCC29213, read-out: MIC values
[19] = ATCC29213, read-out: MIC values, Table S1: ATCC 29213 DAP (derivative after 40 passages on daptomycin)
[20] = SA0422, read-out: MIC values, Table S1: SA0422 DAP (derivative after 40 passages on daptomycin)
[21] = SA0077, read-out: MIC values, Table S1: SA0077 DAP (derivative after 40 passages on daptomycin)

Compound teicoplanin [TEC] has an MIC (S. aureus SA0085 [1]; SA0085, selecting agent DAP, passage 5) of 0.125 µg/mL, an MIC (S. aureus SA0085 [1]; SA0085, selecting agent DAP, passage 20) of 8 µg/mL and an MIC (S. aureus SA0085 [1]; SA0085, selecting agent DAP, passage 40) of 8 µg/mL. For the same compound, the MIC (S. aureus SA0085 [1]; SA0085, selecting agent VAN, passage 0) was 0.125 µg/mL, the MIC (S. aureus SA0085 [1]; SA0085, selecting agent VAN, passage 5) was 1 µg/mL and the MIC (S. aureus SA0085 [1]; SA0085, selecting agent VAN, passage 20) was 2 µg/mL. The MIC (S. aureus SA0085 [1]; SA0085, selecting agent VAN, passage 40) was 8 µg/mL, the MIC values (S. aureus SA0085 [1]; Table S1: SA0085 Abf (passages on antibiotic-free media)) was “.125 µg/mL” and the MIC (S. aureus SA0422 [2]; SA0422, selecting agent DAP, passage 5) was 0.25 µg/mL. For the same compound, the MIC (S. aureus SA0422 [2]; SA0422, selecting agent DAP, passage 20) was 1 µg/mL, the MIC (S. aureus SA0422 [2]; SA0422, selecting agent DAP, passage 40) was 1 µg/mL and the MIC (S. aureus SA0422 [2]; SA0422, selecting agent VAN, passage 0) was 0.5 µg/mL. It also gave an MIC (S. aureus SA0422 [2]; SA0422, selecting agent VAN, passage 5) of 2 µg/mL, an MIC (S. aureus SA0422 [2]; SA0422, selecting agent VAN, passage 20) of 4 µg/mL and an MIC (S. aureus SA0422 [2]; SA0422, selecting agent VAN, passage 40) of 4 µg/mL. The MIC values (S. aureus RN4220 [3]; Table S1: RN4220 WT) was 0.25 µg/mL, the MIC values (S. aureus RN4220 [3]; [13]) was 0.25 µg/mL and the MIC (S. aureus ATCC 29213 [4]; ATCC 29213, selecting agent DAP, passage 5) was 0.5 µg/mL. The MIC (S. aureus ATCC 29213 [4]; ATCC 29213, selecting agent DAP, passage 20) was 2 µg/mL, the MIC (S. aureus ATCC 29213 [4]; ATCC 29213, selecting agent DAP, passage 40) was 4 µg/mL and the MIC (S. aureus ATCC 29213 [4]; ATCC 29213, selecting agent VAN, passage 0) was 0.06 µg/mL. It also gave an MIC (S. aureus ATCC 29213 [4]; ATCC 29213, selecting agent VAN, passage 5) of 0.06 µg/mL, an MIC (S. aureus ATCC 29213 [4]; ATCC 29213, selecting agent VAN, passage 20) of 2 µg/mL and an MIC (S. aureus ATCC 29213 [4]; ATCC 29213, selecting agent VAN, passage 40) of 8 µg/mL. The MIC (S. aureus SA0077 [5]; SA0077, selecting agent DAP, passage 20) was 0.25 µg/mL, the MIC (S. aureus SA0077 [5]; SA0077, selecting agent DAP, passage 40) was 0.25 µg/mL and the MIC (S. aureus SA0077 [5]; SA0077, selecting agent VAN, passage 0) was 0.25 µg/mL. The MIC (S. aureus SA0077 [5]; SA0077, selecting agent VAN, passage 5) was 8 µg/mL, the MIC (S. aureus SA0077 [5]; SA0077, selecting agent VAN, passage 20) was 8 µg/mL and the MIC (S. aureus SA0077 [5]; SA0077, selecting agent VAN, passage 40) was 8 µg/mL. The MIC values (S. aureus SA0077 [5]; Table S1: SA0077 Abf (passages on antibiotic-free media)) was “.125 µg/mL”, the MIC (S. aureus SA0736 [6]; SA0736, selecting agent DAP, passage 5) was 0.25 µg/mL and the MIC (S. aureus SA0736 [6]; SA0736, selecting agent DAP, passage 20) was 8 µg/mL. The MIC (S. aureus SA0736 [6]; SA0736, selecting agent DAP, passage 40W (white colonies)) was 8 µg/mL, the MIC (S. aureus SA0736 [6]; SA0736, selecting agent DAP, passage 40Y (yellow colonies)) was 8 µg/mL and the MIC (S. aureus SA0736 [6]; SA0736, selecting agent VAN, passage 0) was 0.25 µg/mL. The MIC (S. aureus SA0736 [6]; SA0736, selecting agent VAN, passage 5) was 4 µg/mL, the MIC (S. aureus SA0736 [6]; SA0736, selecting agent VAN, passage 40) was 8 µg/mL and the MIC values (S. aureus SA0736 [6]; Table S1: SA0736 DAP-W (40 passages on daptomycin, white colonies)) was 8 µg/mL. The MIC values (S. aureus SA0736 [6]; Table S1: SA0736 DAP-Y (40 passages on daptomycin, yellow colonies)) was 8 µg/mL.

For CCO/N=C(\C(=O)N[C@@H]1C(=O)N2C(C(=O)[O-])=C(Sc3nc(-c4cc[n+](C)cc4)cs3)CS[C@H]12)c1nsc(N)n1 [Ceftaroline], the MIC (S. aureus SA0736 [7]; SA0736, read-out: MIC values) was 1 µg/mL (≈ 1.65 µM), the MIC (S. aureus SA0736 [7]; SA0736, read-out: MIC values, Table S1: SA0736 DAP-W (40 passages on daptomycin, white colonies)) was 0.5 µg/mL (≈ 0.827 µM) and the MIC (S. aureus SA0736 [7]; [14]) was 0.5 µg/mL (≈ 0.827 µM). The MIC (S. aureus SA0736 [7]; [15]) was 0.5 µg/mL (≈ 0.827 µM), the MIC values (S. aureus RN4220 [3]; [13]) was 0.5 µg/mL (≈ 0.827 µM) and the MIC (S. aureus RN4220 [8]) was 0.5 µg/mL (≈ 0.827 µM). It also gave an MIC (S. aureus SA0085 [9]; SA0085, read-out: MIC values) of 1 µg/mL (≈ 1.65 µM), an MIC (S. aureus SA0085 [9]; [16]) of 0.5 µg/mL (≈ 0.827 µM) and an MIC (S. aureus SA0085 [9]; [17]) of 0.125 µg/mL (≈ 0.207 µM). For the same compound, the MIC (S. aureus ATCC 29213 [10]; [18]) was 0.125 µg/mL (≈ 0.207 µM), the MIC (S. aureus ATCC 29213 [10]; [19]) was 0.25 µg/mL (≈ 0.413 µM) and the MIC (S. aureus SA0422 [11]; SA0422, read-out: MIC values) was 2 µg/mL (≈ 3.31 µM). For the same compound, the MIC (S. aureus SA0422 [11]; [20]) was 0.5 µg/mL (≈ 0.827 µM), the MIC (S. aureus SA0422 [11]; SA0422, read-out: MIC values, Table S1: SA0422 VAN (derivative after 40 passages on vancomycin)) was 1 µg/mL (≈ 1.65 µM) and the MIC (S. aureus SA0077 [12]; SA0077, read-out: MIC values) was 1 µg/mL (≈ 1.65 µM). For the same compound, the MIC (S. aureus SA0077 [12]; [21]) was 0.5 µg/mL (≈ 0.827 µM).

In the case of CO[C@@]1(NC(=O)Cc2cccs2)C(=O)N2C(C(=O)O)=C(COC(N)=O)CS[C@@H]21 [Cefoxitin], the MIC (S. aureus SA0736 [7]; SA0736, read-out: MIC values) is reported as 64 µg/mL (≈ 150 µM), the MIC (S. aureus SA0736 [7]; [14]) is reported as 8 µg/mL (≈ 18.7 µM) and the MIC (S. aureus SA0736 [7]; [15]) is reported as 128 µg/mL (≈ 299 µM). For the same compound, the MIC values (S. aureus RN4220 [3]; [13]) was 4 µg/mL (≈ 9.36 µM), the MIC (S. aureus RN4220 [8]) was 4 µg/mL (≈ 9.36 µM) and the MIC (S. aureus SA0085 [9]; SA0085, read-out: MIC values) was 256 µg/mL (≈ 599 µM). It also gave an MIC (S. aureus SA0085 [9]; [16]) of 4 µg/mL (≈ 9.36 µM), an MIC (S. aureus SA0085 [9]; [17]) of 4 µg/mL (≈ 9.36 µM) and an MIC (S. aureus ATCC 29213 [10]; [18]) of 4 µg/mL (≈ 9.36 µM). It also gave an MIC (S. aureus ATCC 29213 [10]; [19]) of 2 µg/mL (≈ 4.68 µM), an MIC (S. aureus SA0422 [11]; SA0422, read-out: MIC values) of 256 µg/mL (≈ 599 µM) and an MIC (S. aureus SA0422 [11]; [20]) of 64 µg/mL (≈ 150 µM). The MIC (S. aureus SA0077 [12]; SA0077, read-out: MIC values) was 256 µg/mL (≈ 599 µM), the MIC (S. aureus SA0077 [12]; SA0077, read-out: MIC values, Table S1: SA0077 Abf (passages on antibiotic-free media)) was 64 µg/mL (≈ 150 µM) and the MIC (S. aureus SA0077 [12]; [21]) was 128 µg/mL (≈ 299 µM). The MIC (S. aureus SA0077 [12]; SA0077, read-out: MIC values, Table S1: SA0077 VAN (derivative after 40 passages on vancomycin)) was 128 µg/mL (≈ 299 µM).
